Reference: US11897851B2, “Heterocyclic GLP-1 agonists” (Gasherbrum Bio, Inc., priority 2021, dated 2024)

Molecular target: T1, GLP-1 Receptor (Homo sapiens, UniProt P43220)
T1 construct: host or cells: HEK293/GLP1R/CRE-LUC (HEK293/CRE-Luc stably expressing the GLP-1 receptor)
Assay: GLP-1R agonist cAMP stimulation assay (HEK293/GLP1R/CRE-LUC cells, Cisbio cAMP dynamic 2 kit);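 also: compounds tested in half-log serial dilution, cAMP detected with cAMP-d2 and anti-cAMP cryptate antibody reagents after 1 h at room temperature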
Format: cell-based
Conditions: HEK293/CRE-Luc cell line stably expressing the GLP-1 Receptor; 1000 cells/well; 30 min at 37° C.; 0.5 mM IBMX, 0.1% BSA; read-out: GLP1R cAMP Stimulation DR: EC50

T1 sequence (P43220 24-463, species assumed): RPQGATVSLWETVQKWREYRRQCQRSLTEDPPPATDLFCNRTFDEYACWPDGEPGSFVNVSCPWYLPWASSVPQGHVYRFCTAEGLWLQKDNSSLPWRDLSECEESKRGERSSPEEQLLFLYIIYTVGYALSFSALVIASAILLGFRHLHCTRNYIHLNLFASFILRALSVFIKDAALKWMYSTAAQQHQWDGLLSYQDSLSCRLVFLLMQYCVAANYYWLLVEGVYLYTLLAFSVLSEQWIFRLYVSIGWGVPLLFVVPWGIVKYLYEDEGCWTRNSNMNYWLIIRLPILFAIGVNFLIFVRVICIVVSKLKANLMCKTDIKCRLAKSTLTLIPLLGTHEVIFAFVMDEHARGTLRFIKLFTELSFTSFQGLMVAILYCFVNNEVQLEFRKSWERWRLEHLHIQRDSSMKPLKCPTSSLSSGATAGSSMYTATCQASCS

EC50 | Structure (SMILES)
1.4 nM | C/C(=C\c1cnc(CN2CCC(c3cccc(OCc4ccc(Cl)cc4F)n3)CC2)n1C[C@@H]1CCO1)C(=O)O [Compound 218a, (S,E)-3-(2-((4-(6-((4-chloro-2-fluorobenzyl)oxy)pyridin-2-yl)piperidin-1-yl)methyl)-1-(oxetan-2-ylmethyl)-1H-imidazol-5-yl)-2-methylacrylic acid]
0.0095 nM | C[C@]1(c2ccc(Cl)cc2F)Oc2cccc(C3CCN(Cc4ncc(/C=C/C(=O)O)n4CCOCC(F)(F)F)CC3)c2O1 [Compound 198a, (S,E)-3-(2-((4-(2-(4-chloro-2-fluorophenyl)-2-methylbenzo[d][1,3]dioxol-4-yl)piperidin-1-yl)methyl)-1-(2-(2,2,2-trifluoroethoxy)ethyl)-1H-imidazol-5-yl)acrylic acid]
0.41 nM | O=C(O)/C=C/c1cnc(CN2CCC(c3cccc4c3OC[C@@H](c3ccc(Cl)cc3)O4)CC2)n1Cc1ncco1 [Compound 186a, (R,E)-3-(2-((4-(2-(4-chlorophenyl)-2,3-dihydrobenzo [b][1,4]dioxin-5-yl)piperidin-1-yl)methyl)-1-(oxazol-2-ylmethyl)-1H-imidazol-5-yl)acrylic acid]
0.0067 nM | C[C@H](Cn1c(/C=C/C(=O)O)cnc1CN1CCC(c2cccc3c2O[C@@](C)(c2ccc(Cl)cc2F)O3)CC1)OC1CC1 [Compound 170b, (E)-3-(2-((4-((S)-2-(4-chloro-2-fluorophenyl)-2-methylbenzo[d][1,3]dioxol-4-yl)piperidin-1-yl)methyl)-1-((R)-2-cyclopropoxypropyl)-1H-imidazol-5-yl)acrylic acid]
2.5 nM | C[C@@H](Cn1c(/C=C/C(=O)O)cnc1CN1CCC(c2cccc3c2O[C@@](C)(c2ccc(Cl)cc2F)O3)CC1)OC1CC1 [Compound 170a, (E)-3-(2-((4-((S)-2-(4-chloro-2-fluorophenyl)-2-methylbenzo[d][1,3]dioxol-4-yl)piperidin-1-yl)methyl)-1-((S)-2-cyclopropoxypropyl)-1H-imidazol-5-yl)acrylic acid]
6.9 nM | O=C(O)/C=C/c1cn(Cc2ncco2)c(CN2CCC(c3cccc4c3OC[C@@H](c3ccc(Cl)cc3)O4)CC2)n1 [Compound 222a, (R,E)-3-(2-((4-(2-(4-chlorophenyl)-2,3-dihydrobenzo[b][1,4]dioxin-5-yl)piperidin-1-yl)methyl)-1-(oxazol-2-ylmethyl)-1H-imidazol-4-yl)acrylic acid]
0.0012 nM | CCn1cncc1Cn1c(/C=C/C(=O)O)cnc1CN1CCC(c2cccc3c2O[C@@](C)(c2ccc(Cl)cc2F)O3)CC1 [Compound 139a, (S,E)-3-(2-((4-(2-(4-chloro-2-fluorophenyl)-2-methylbenzo[d][1,3]dioxol-4-yl)piperidin-1-yl)methyl)-1-((1-ethyl-1H-imidazol-5-yl)methyl)-1H-imidazol-5-yl)acrylic acid]

Second part, the molecule before the results:

Structure (SMILES) | EC50
CCn1cncc1Cn1c(/C=C/C(=O)O)nnc1CN1CCC(c2cccc3c2OC(C)(c2ccc(Cl)cc2F)O3)CC1 (centres unmarked) [Compound 142, (E)-3-(5-((4-(2-(4-chloro-2-fluorophenyl)-2-methylbenzo[d][1,3]dioxol-4-yl)piperidin-1-yl)methyl)-4-((1-ethyl-1H-imidazol-5-yl)methyl)-4H-1,2,4-triazol-3-yl)acrylic acid] | 0.012 nM
Cn1c(C(=O)O)cnc1CN1CCC(c2cccc(OCc3ccc(Cl)cc3F)n2)CC1 [Compound 101, 2-((4-(6-((4-chloro-2-fluorobenzyl)oxy)pyridin-2-yl)piperidin-1-yl)methyl)-1-methyl-1H-imidazole-5-carboxylic acid] | 227 nM
Cn1c(C2CCC(C(=O)O)C2)cnc1CN1CCC(c2cccc3c2OC(C)(c2ccc(Cl)cc2F)O3)CC1 (centres unmarked) [Compound 247, 3-(2-((4-(2-(4-chloro-2-fluorophenyl)-2-methylbenzo[d][1,3]dioxol-4-yl)piperidin-1-yl)methyl)-1-methyl-1H-imidazol-5-yl)cyclopentane-1-carboxylic acid] | 310 nM
CC1(c2ccc(Cl)cc2F)Oc2cccc(C3CCN(Cc4ncc(/C=C/C(=O)O)n4CC4CCC4(F)F)CC3)c2O1 (centres unmarked) [Compound 167, (E)-3-(2-((4-(2-(4-chloro-2-fluorophenyl)-2-methylbenzo[d][1,3]dioxol-4-yl)piperidin-1-yl)methyl)-1-((2,2-difluorocyclobutyl)methyl)-1H-imidazol-5-yl)acrylic acid] | 0.065 nM
C/C(=C\c1nnc(CN2CCC(c3cccc4c3OC(C)(c3ccc(Cl)cc3F)O4)CC2)n1C[C@@H]1CCO1)C(=O)O (stereo partly drawn) [Compound 137a, (E)-3-(5-((4-(2-(4-chloro-2-fluorophenyl)-2-methylbenzo[d][1,3]dioxol-4-yl)piperidin-1-yl)methyl)-4-(((S)-oxetan-2-yl)methyl)-4H-1,2,4-triazol-3-yl)-2-methylacrylic acid] | 0.3 nM
Cc1cc(-c2nnc(C(F)(F)F)[nH]2)cnc1CN1CCC(c2cccc3c2OC(C)(c2ccc(F)cc2F)O3)CC1 (centres unmarked) [Compound 262, 2-({4-[2-(2,4-difluorophenyl)-2-methyl-2H-1,3-benzodioxol-4-yl]piperidin-1-yl}methyl)-3-methyl-5-[5-(trifluoromethyl)-4H-1,2,4-triazol-3-yl]pyridine] | 3 nM
Fc1cc(Cl)ccc1COc1cccc(C2CCN(Cc3ccc(-c4nn[nH]n4)cn3)CC2)n1 [Compound 127, 2-((4-(6-((4-chloro-2-fluorobenzyl)oxy)pyridin-2-yl)piperidin-1-yl)methyl)-5-(2H-tetrazol-5-yl)pyridine] | 147 nM
CCn1cncc1Cn1c(/C=C(\C)C(=O)O)cnc1CN1CCC(c2cccc(OCc3ccc(Cl)cc3F)n2)CC1 [Compound 219, (E)-3-(2-((4-(6-((4-chloro-2-fluorobenzyl)oxy)pyridin-2-yl)piperidin-1-yl)methyl)-1-((1-ethyl-1H-imidazol-5-yl)methyl)-1H-imidazol-5-yl)-2-methylacrylic acid] | 0.0069 nM
COCCn1c(CCC(=O)O)cnc1CN1CCC(c2cccc3c2OC(C)(c2ccc(Cl)cc2F)O3)CC1 (centres unmarked) [Compound 237, 3-(2-((4-(2-(4-chloro-2-fluorophenyl)-2-methylbenzo[d][1,3]dioxol-4-yl)piperidin-1-yl)methyl)-1-(2-methoxyethyl)-1H-imidazol-5-yl)propanoic acid] | 0.29 nM
Cc1ncsc1Cn1c(/C=C/C(=O)O)cnc1CN1CCC(c2cccc3c2OC(C)(c2ccc(Cl)cc2F)O3)CC1 (centres unmarked) [Compound 189, (E)-3-(2-((4-(2-(4-chloro-2-fluorophenyl)-2-methylbenzo[d][1,3]dioxol-4-yl)piperidin-1-yl)methyl)-1-((4-methylthiazol-5-yl)methyl)-1H-imidazol-5-yl)acrylic acid] | 0.022 nM
COc1nc(CCC(=O)O)ccc1CN1CCC(c2cccc(OCc3ccc(Cl)cc3F)n2)CC1 [Compound 124, 3-(5-((4-(6-((4-Chloro-2-fluorobenzyl)oxy)pyridin-2-yl)piperidin-1-yl)methyl)-6-methoxypyridin-2-yl)propanoic acid] | > 1000 nM
Cn1c(/C=C/C(=O)O)cnc1CN1CCC(c2cccc(OCc3ccc(Cl)cc3F)n2)CC1 [Compound 104, (E)-3-(2-((4-(6-((4-chloro-2-fluorobenzyl)oxy)pyridin-2-yl)piperidin-1-yl)methyl)-1-methyl-1H-imidazol-5-yl)acrylic acid] | 3.45 nM
CC(Nc1ccc(CN2CCC(c3cccc(OCc4ccc(Cl)cc4F)n3)CC2)nc1)C(=O)O (centres unmarked) [Compound 130, 2-((6-((4-(6-((4-chloro-2-fluorobenzyl)oxy)pyridin-2-yl)piperidin-1-yl)methyl)pyridin-3-yl)amino)propanoic acid] | > 1000 nM
CC1(c2ccc(Cl)cc2F)Oc2cccc(C3CCN(Cc4ncc(/C=C/C(=O)O)n4CC4CC(O)C4)CC3)c2O1 (centres unmarked) [Compound 177, (E)-3-(2-((4-(2-(4-chloro-2-fluorophenyl)-2-methylbenzo[d][1,3]dioxol-4-yl)piperidin-1-yl)methyl)-1-((3-hydroxycyclobutyl)methyl)-1H-imidazol-5-yl)acrylic acid] | 0.18 nM
Cc1cc(-c2nnc(C(F)(F)F)[nH]2)cnc1CN1CCC(c2cccc3c2OC(C)(c2ccc(F)cc2)O3)CC1 (centres unmarked) [Compound 263, 2-({4-[2-(4-fluorophenyl)-2-methyl-2H-1,3-benzodioxol-4-yl]piperidin-1-yl}methyl)-3-methyl-5-[5-(trifluoromethyl)-4H-1,2,4-triazol-3-yl]pyridine] | 6.8 nM
C[C@H]1CN(c2cccc3c2OC(C)(c2ccc(Cl)cc2F)O3)CCN1Cc1ncc(/C=C/C(=O)O)n1C[C@@H]1CCO1 (stereo partly drawn) [Compound 180, (E)-3-(2-(((2S)-4-(2-(4-chloro-2-fluorophenyl)-2-methylbenzo [d][1,3]dioxol-4-yl)-2-methylpiperazin-1-yl)methyl)-1-(((S)-oxetan-2-yl)methyl)-1H-imidazol-5-yl)acrylic acid] | 0.026 nM
CC(=O)N(C)CCn1c(/C=C/C(=O)O)cnc1CN1CCC(c2cccc3c2OC(C)(c2ccc(Cl)cc2F)O3)CC1 (centres unmarked) [Compound 175, (E)-3-(2-((4-(2-(4-chloro-2-fluorophenyl)-2-methylbenzo[d][1,3]dioxol-4-yl)piperidin-1-yl)methyl)-1-(2-(N-methylacetamido)ethyl)-1H-imidazol-5-yl)acrylic acid] | 0.047 nM
CC(C)OCCn1c(/C=C/C(=O)O)cnc1CN1CCC(c2cccc3c2OC(C)(c2ccc(Cl)cc2F)O3)CC1 (centres unmarked) [Compound 158, (E)-3-(2-((4-(2-(4-chloro-2-fluorophenyl)-2-methylbenzo[d][1,3]dioxol-4-yl)piperidin-1-yl)methyl)-1-(2-isopropoxyethyl)-1H-imidazol-5-yl)acrylic acid] | 0.056 nM
CC1(c2ccc(Cl)cc2F)Oc2cccc(C3CCN(Cc4ncc(/C=C/C(=O)O)n4CCOC4CC4)CC3)c2O1 (centres unmarked) [Compound 201, (E)-3-(2-((4-(2-(4-chloro-2-fluorophenyl)-2-methylbenzo[d][1,3]dioxol-4-yl)piperidin-1-yl)methyl)-1-(2-cyclopropoxyethyl)-1H-imidazol-5-yl)acrylic acid] | 0.034 nM
